The values below come from patent publication US20150038545A1, “HYDROXYPHENYL PYRROLE COMPOUNDS CONTAINING AN HYDROXAMIC ACID AS HDAC INHIBITORS AND MEDICINAL APPLICATIONS THEREOF” (UNIVERSIDAD DEL PAÍS VASCO, priority 2011, published 2015).

In one experiment the test system is Calu-6. Nature of the experiment: Cancer cell growth inhibition (CellTiter-Glo), Calu-6. Type of experiment: cell-based, Human. Particulars: Homo sapiens; Lung Cancer, Calu-6, 72 h treatment. How it is done:
(§1) Cell culture-based assays were used to evaluate the ability of compounds of the invention to inhibit cancer cell growth.
(§2) Cells were obtained from the American Type Culture Collection (ATCC). Cells were cultured at 37° C. with 5% CO2 in the appropriate growth medium (see table below), and harvested respectively during the logarithmic growth period and counted with hemocytometer. The cell viability was examined by trypan blue exclusion. Cell concentrations were adjusted to 5.56×10^4 cells/ml with respective medium.
(§3) Stock solutions of test compounds and positive drugs Doxorubicin (Zhejiang, Haizheng, China), Cisplatin (Nanjing Zhiyao, China) and Mitomycin (Zhejiang, Haizheng, China) were prepared in dimethyl sulphoxide (DMSO) or PBS at 20 mM.
(§4) In order to determine the IC50 for each compound, experiments were carried out in 96-well plates and the cell lines seeded at a density of 5,000 cells/well. […] All treatments were performed in triplicate. 10 μl of drug solution was added to each well and incubated for 72 hours. At the end of the incubation, 100 μl of the CellTiter-Glo Reagent were added to each well and the contents were mixed for 2 munites on an orbital shaker to induce cell lysis. The plate was incubated at room temperature for 10 minutes to stabilize luminiscent signal, and luminiscent was recorded. […] In order to calculate IC50 values, dose-responsive curves were fitted using nonlinear regression model with a sigmoidal dose response.
(In general: ATP-based viability assays read luminescence as a measure of living cells.)

In a further experiment the test system is SK-MES-1. Nature of the experiment: Cancer cell growth inhibition (CellTiter-Glo), SK-MES-1. Type of experiment: cell-based, Human. Particulars: Homo sapiens; Lung Cancer, SK-MES-1, 72 h treatment. How it is done:
as §1, §2, §3, §4

In another experiment the test system is MCF-7. Nature of the experiment: Cancer cell growth inhibition (CellTiter-Glo), MCF-7. The settings on record: Homo sapiens, MCF7; Breast Cancer, MCF-7, 72 h treatment. Type of experiment: cell-based, Human. How it is done: as §1, §2, §3, §4
For a further experiment, the system named is SK-OV-3. Nature of the experiment: Cancer cell growth inhibition (CellTiter-Glo), SK-OV-3. Particulars: Homo sapiens; Ovarian Cancer, SK-OV-3, 72 h treatment. It is filed as cell-based, Human. On the procedure:
as §1, §2, §3, §4

In the next experiment the test system is RPMI-8226. Nature of the experiment: Cancer cell growth inhibition (CellTiter-Glo), RPMI-8226. The settings on record: Homo sapiens; Orthotopic Multiple Myeloma, RPMI-8226, 72 h treatment. It is filed as cell-based, Human. On the procedure:
as §1, §2, §3, §4

A further experiment relates to A549. Nature of the experiment: Cancer cell growth inhibition (CellTiter-Glo), A549. The settings on record: Homo sapiens; Lung Cancer, A549, 72 h treatment. Type of experiment: cell-based, Human. On the procedure: as §1, §2, §3, §4
The test system of a further experiment is SK-BR-3. Nature of the experiment: Cancer cell growth inhibition (CellTiter-Glo), SK-BR-3. It is filed as cell-based, Human. Particulars: Homo sapiens; Breast Cancer, SK-BR-3, 72 h treatment. On the procedure:
as §1, §2, §3, §4

For the next experiment, the system named is LoVo. Nature of the experiment: Cancer cell growth inhibition (CellTiter-Glo), LoVo. Type of experiment: cell-based, Human. The settings on record: Homo sapiens, Colorectal Cancer, 72 h treatment. On the procedure:
as §1, §2, §3, §4

The next experiment relates to SW480. Nature of the experiment: Cancer cell growth inhibition (CellTiter-Glo), SW480. It is filed as cell-based, Human. The settings on record: Homo sapiens; Colorectal Cancer, SW480, 72 h treatment. How it is done:
as §1, §2, §3, §4

The next experiment has as its system DU145. Nature of the experiment: Cancer cell growth inhibition (CellTiter-Glo), DU145. Type of experiment: cell-based, Human. The settings on record: Homo sapiens, DU-145; Prostate Cancer, DU145, 72 h treatment. On the procedure:
as §1, §2, §3, §4

For another experiment, the system named is MIAPaCa-2. Nature of the experiment: Cancer cell growth inhibition (CellTiter-Glo), MIAPaCa-2. It is filed as cell-based. Particulars: Homo sapiens, MIA PaCa-2; Pancreatic Cancer, MIAPaCa-2, 72 h treatment. On the procedure:
as §1, §2, §3, §4

In another experiment the test system is SK-HEP-1. Nature of the experiment: Cancer cell growth inhibition (CellTiter-Glo), SK-HEP-1. It is filed as cell-based. The settings on record: Homo sapiens, SK-HEP1; Liver Cancer, SK-HEP-1, 72 h treatment. How it is done: as §1, §2, §3, §4

With `O=C(CCCCCNC(=O)c1[nH]c(-c2ccc(O)cc2)cc1-c1ccoc1)NO` [Example 5, 3-(3-furyl)-N-(5-(hydroxycarbamoyl)pentyl)-5-(4-hydroxy-phenyl)-1H-pyrrole-2-carboxamide], the IC50 was 4.66 µM in the experiment on Calu-6; 3.62 µM with SK-MES-1; 9.23 µM in the experiment with MCF-7; 1.56 µM with SK-OV-3; 6.2 µM in the experiment with RPMI-8226; 4.35 µM in the experiment with A549. Besides, the IC50 with SK-BR-3 was found to be 0.43 µM; in the experiment on LoVo it was 1.08 µM; in the experiment on SW480, 0.48 µM; with DU145 it was 0.72 µM; in the experiment on MIAPaCa-2, 1.59 µM; in the experiment on SK-HEP-1, 1.84 µM.

Take `O=C(CCCCCNC(=O)c1[nH]c(-c2ccc(O)cc2)cc1-c1ccsc1)NO` [Example 6, N-(5-(hydroxycarbamoyl)pentyl)-5-(4-hydroxyphenyl)-3-(3-thienyl)-1H-pyrrole-2-carboxamide]: the IC50 was determined as 3.46 µM in the experiment with Calu-6; 3.7 µM in the experiment with SK-MES-1; 7.07 µM with MCF-7; 3.15 µM with SK-OV-3; 4.8 µM in the experiment on RPMI-8226; 5.39 µM in the experiment on A549. Further, the IC50 in the experiment on SK-BR-3 is 1.36 µM; with LoVo, 1.24 µM; in the experiment with SW480, 1.08 µM; with DU145, 1.05 µM; in the experiment on MIAPaCa-2 it was 2.49 µM; in the experiment with SK-HEP-1, 3.13 µM.

As to `O=C(CCCCCNC(=O)c1[nH]c(-c2ccccc2)cc1-c1ccc(O)cc1)NO` [Example 1, N-(6-(hydroxyamino)-6-oxohexyl)-3-(4-hydroxyphenyl)-5-phenyl-1H-pyrrole-2-carboxamide], the IC50 in the experiment on Calu-6 is 2.79 µM; in the experiment with SK-MES-1 it was 2.88 µM; in the experiment on MCF-7, 1.75 µM; with SK-OV-3, 3.16 µM; in the experiment on RPMI-8226 it was 0.7 µM; with A549 it was 4.65 µM. Also, the IC50 was determined as 3.49 µM in the experiment with SK-BR-3; 1.4 µM with LoVo; 1.73 µM in the experiment with SW480; 0.81 µM in the experiment with DU145; 2.75 µM in the experiment with MIAPaCa-2; 4.03 µM with SK-HEP-1.

Take `O=C(CCCCCNC(=O)c1[nH]c(-c2ccc(O)cc2)cc1-c1ccccc1)NO` [Example 2, N-(6-(hydroxyamino)-6-oxohexyl)-5-(4-hydroxyphenyl)-3-phenyl-1H-pyrrole-2-carboxamide]: the IC50 with Calu-6 is 4.22 µM; with SK-MES-1, 4.8 µM; in the experiment with MCF-7, 10.9 µM; with SK-OV-3 it was 6.88 µM; in the experiment with RPMI-8226, 4.47 µM; in the experiment with A549, 8.25 µM. The IC50 in the experiment on SK-BR-3 stood at 3.37 µM; with LoVo it was 2.69 µM; with SW480, 2.12 µM; in the experiment on DU145, 1.86 µM; in the experiment with MIAPaCa-2 it was 4.08 µM; in the experiment on SK-HEP-1, 6.04 µM.

For orientation: IC50 means the midpoint of a concentration-inhibition curve. Low readings indicate higher potency, high ones lower potency.
